Measurements as given in BigSolDB 2.1.

COc1ccc(C(=O)O)c(OC)c1OC
solubility (mole fraction)
Details	278.15 K	283.15 K	288.15 K	293.15 K	298.15 K	303.15 K	308.15 K	313.15 K	318.15 K
in 2-butoxyethanol	0.0838	0.0944	0.113	0.127	0.148	0.167	0.185	0.207	0.25
in 2-ethoxyethanol	0.179	0.207	0.238	0.264	0.289	0.318	0.353	0.39	0.431
in 2-methoxyethanol	0.11	0.127	0.154	0.168	0.194	0.213	0.233	0.26	0.283
in ethanol	0.0482	0.0585	0.0733	0.0926	0.116	0.154	0.199	0.27	0.3
in ethyl acetate	0.066	0.0792	0.0992	0.112	0.13	0.174	0.236	0.283	0.301
in ethylene glycol	0.0165	0.0188	0.0227	0.0281	0.036	0.0421	0.0501	0.0635	0.0828
in isopropanol	0.0261	0.0363	0.0496	0.069	0.0801	0.102	0.129	0.158	0.186
in isopropyl acetate	0.0412	0.0495	0.0584	0.0692	0.0778	0.0892	0.0988	0.115	0.137
in n-butyl acetate	0.047	0.0574	0.0673	0.0751	0.0832	0.0991	0.12	0.136	0.168
in n-propanol	0.0312	0.0405	0.0538	0.072	0.082	0.104	0.129	0.161	0.189
in n-propyl acetate	0.0357	0.0454	0.0549	0.0722	0.0829	0.106	0.13	0.162	0.189
in water	0.000331	0.000419	0.000497	0.000553	0.000703	0.000892	0.00109	0.00134	0.00152
